# Laboratory results as given in PubChem BioAssay AID216 (DTP/NCI, 2004).
# Values joined by “and” are separate entries in the source; they are usually repeats but may differ in a detail not shown here. Equal entries are not always repeated. Inconclusive results and toxic doses are left out.
# Test system: BDF1 mice, P288 leukemia ip, survival T/C
# Assay: NCI In Vivo Anticancer Drug Screen. Data for tumor model P288 Lymphocytic Leukemia (intraperitoneal) in B6D2F1 (BDF1) mice
# Conditions: endpoint: survival time, mean or median, higher = longer survival
# Protocol: The antitumor activity of compounds was measured in mice bearing transplantable tumors. Survival or tumor size were measured and the results are expressed as the measurement made in the treated group (T) divided by the measurement made in the vehicle treated control group (C). The tumor model used in this assay is P288 Lymphocytic Leukemia (intraperitoneal) in B6D2F1 (BDF1) mice
# [1] = dose: 18.8 mg/kg/injection, schedule: Q01DX Z (ip), vehicle: carboxymethylcellulose (CMC)
# [2] = dose: 37.5 mg/kg/injection, schedule: Q01DX Z (ip), vehicle: carboxymethylcellulose (CMC)
# [3] = dose: 75.0 mg/kg/injection, schedule: Q01DX Z (ip), vehicle: carboxymethylcellulose (CMC)
# [4] = dose: 50.0 mg/kg/injection, schedule: Q01DX010 (ip), vehicle: saline
# [5] = dose: 100.0 mg/kg/injection, schedule: Q01DX010 (ip), vehicle: saline
# [6] = dose: 200.0 mg/kg/injection, schedule: Q01DX010 (ip), vehicle: saline
# [7] = dose: 25.0 mg/kg/injection, schedule: Q01DX010 (ip), vehicle: saline
compound,measurement,setting,value
O=c1[nH]c(=O)n(C2CC(O)C(CO)O2)cc1I (configuration not stated),T/C,"dose: 63.0 mg/kg/injection, schedule: Q01DX Z (ip), vehicle: carboxymethylcellulose (CMC)",104 % of control
same,T/C,"dose: 250.0 mg/kg/injection, schedule: Q01DX Z (ip), vehicle: carboxymethylcellulose (CMC)",124 % of control
same,T/C,"dose: 1000.0 mg/kg/injection, schedule: Q01DX010 (ip), vehicle: saline",116 % of control
O=C(Nc1ccc(C2=NCCN2)cc1)c1cccc(C(=O)Nc2ccc(C3=NCCN3)cc2)c1,T/C,"dose: 2.4 mg/kg/injection, schedule: Q01DX Z (ip), vehicle: carboxymethylcellulose (CMC)",101 % of control
same,T/C,"dose: 4.7 mg/kg/injection, schedule: Q01DX Z (ip), vehicle: carboxymethylcellulose (CMC)",92 % of control
same,T/C,"dose: 9.4 mg/kg/injection, schedule: Q01DX Z (ip), vehicle: carboxymethylcellulose (CMC)",105 % of control
same,T/C,"dose: 16.0 mg/kg/injection, schedule: Q01DX010 (ip), vehicle: saline",211 % of control and 262 % of control
same,T/C,[1],161 % of control
same,T/C,"dose: 32.0 mg/kg/injection, schedule: Q01DX010 (ip), vehicle: saline",255 % of control and 375 % of control
same,T/C,[2],230 % of control
same,T/C,"dose: 64.0 mg/kg/injection, schedule: Q01DX010 (ip), vehicle: saline",333 % of control and 375 % of control
same,T/C,[3],112 % of control
same,T/C,"dose: 128.0 mg/kg/injection, schedule: Q01DX010 (ip), vehicle: saline",268 % of control and 333 % of control
CCCNc1ncnc2[nH]ncc12,T/C,"dose: 0.31 mg/kg/injection, schedule: Q01DX Z (ip), vehicle: water",94 % of control
same,T/C,"dose: 0.63 mg/kg/injection, schedule: Q01DX Z (ip), vehicle: water",90 % of control
same,T/C,"dose: 2.5 mg/kg/injection, schedule: Q01DX Z (ip), vehicle: water",108 % of control and 114 % of control
same,T/C,"dose: 5.0 mg/kg/injection, schedule: Q01DX Z (ip), vehicle: water",112 % of control
same,T/C,"dose: 10.0 mg/kg/injection, schedule: Q01DX Z (ip), vehicle: water",106 % of control and 91 % of control
same,T/C,"dose: 20.0 mg/kg/injection, schedule: Q01DX Z (ip), vehicle: water",108 % of control
same,T/C,"dose: 40.0 mg/kg/injection, schedule: Q01DX Z (ip), vehicle: water",103 % of control
CC(=O)Nc1ccc(/C=N/Nc2ccc([N+](=O)[O-])cn2)cc1,T/C,"dose: 31.3 mg/kg/injection, schedule: Q01DX010 (ip), vehicle: saline",89 % of control
same,T/C,"dose: 62.5 mg/kg/injection, schedule: Q01DX010 (ip), vehicle: saline",89 % of control
same,T/C,"dose: 250.0 mg/kg/injection, schedule: Q01DX010 (ip), vehicle: saline",89 % of control
O=C(Nc1ccc(NC(=O)Nc2cccc(C3=NCCN3)c2)cc1)Nc1cccc(C2=NCCN2)c1,T/C,"dose: 60.0 mg/kg/injection, schedule: Q01DX010 (ip), vehicle: saline",163 % of control and 168 % of control
same,T/C,"dose: 120.0 mg/kg/injection, schedule: Q01DX010 (ip), vehicle: saline",173 % of control and 210 % of control
same,T/C,"dose: 240.0 mg/kg/injection, schedule: Q01DX010 (ip), vehicle: saline",221 % of control
same,T/C,"dose: 480.0 mg/kg/injection, schedule: Q01DX010 (ip), vehicle: saline",152 % of control
OC(CBr)C(O)C(O)C(O)CBr (configuration not stated),T/C,[4],114 % of control and 94 % of control
same,T/C,[5],114 % of control and 94 % of control
same,T/C,[6],114 % of control and 94 % of control
same,T/C,"dose: 400.0 mg/kg/injection, schedule: Q01DX010 (ip), vehicle: saline",105 % of control and 114 % of control
O=C1C(NC(=O)C2CCCCC2)=C(N2CC2)C(=O)C(NC(=O)C2CCCCC2)=C1N1CC1,T/C,[1],93 % of control
same,T/C,[7],100 % of control
same,T/C,[2],96 % of control
same,T/C,[4],94 % of control
same,T/C,[3],107 % of control
same,T/C,[5],88 % of control
same,T/C,"dose: 150.0 mg/kg/injection, schedule: Q01DX Z (ip), vehicle: carboxymethylcellulose (CMC)",100 % of control
same,T/C,[6],100 % of control
same,T/C,"dose: 300.0 mg/kg/injection, schedule: Q01DX Z (ip), vehicle: carboxymethylcellulose (CMC)",112 % of control
same,T/C,"dose: 600.0 mg/kg/injection, schedule: Q01DX Z (ip), vehicle: carboxymethylcellulose (CMC)",105 % of control and 120 % of control
same,T/C,"dose: 1200.0 mg/kg/injection, schedule: Q01DX Z (ip), vehicle: carboxymethylcellulose (CMC)",86 % of control
COc1cc2c(c(OC)c1OC)-c1ccc(OC)c(=O)cc1[C@@H](NC(C)=O)CC2,T/C,"dose: 0.12 mg/kg/injection, schedule: Q01DX Z (ip), vehicle: saline",109 % of control
[I][Hg][CH2]C1COC([CH2][Hg][I])CO1 (configuration not stated),T/C,"dose: 0.95 mg/kg/injection, schedule: Q01DX Z (ip), vehicle: carboxymethylcellulose (CMC)",97 % of control
same,T/C,"dose: 1.9 mg/kg/injection, schedule: Q01DX Z (ip), vehicle: carboxymethylcellulose (CMC)",94 % of control
same,T/C,"dose: 3.75 mg/kg/injection, schedule: Q01DX Z (ip), vehicle: carboxymethylcellulose (CMC)",90 % of control
same,T/C,"dose: 6.25 mg/kg/injection, schedule: Q01DX010 (ip), vehicle: saline",100 % of control
same,T/C,"dose: 12.5 mg/kg/injection, schedule: Q01DX010 (ip), vehicle: saline",100 % of control
same,T/C,"dose: 15.0 mg/kg/injection, schedule: Q01DX Z (ip), vehicle: carboxymethylcellulose (CMC)",94 % of control
same,T/C,[7],100 % of control
same,T/C,[4],88 % of control
COC12C(COC(N)=O)C3=C(C(=O)C(C)=C(N)C3=O)N1CC1C2N1C (configuration not stated),T/C,"dose: 0.31 mg/kg/injection, schedule: Q01DX Z (ip), vehicle: carboxymethylcellulose (CMC)",110 % of control
same,T/C,"dose: 0.63 mg/kg/injection, schedule: Q01DX Z (ip), vehicle: carboxymethylcellulose (CMC)",120 % of control
same,T/C,"dose: 1.25 mg/kg/injection, schedule: Q01DX Z (ip), vehicle: carboxymethylcellulose (CMC)",114 % of control
same,T/C,"dose: 5.0 mg/kg/injection, schedule: Q01DX Z (ip), vehicle: carboxymethylcellulose (CMC)",156 % of control
same,T/C,"dose: 10.0 mg/kg/injection, schedule: Q01DX Z (ip), vehicle: carboxymethylcellulose (CMC)",167 % of control
same,T/C,"dose: 20.0 mg/kg/injection, schedule: Q01DX Z (ip), vehicle: carboxymethylcellulose (CMC)",93 % of control
O=C(Nc1ccc(C2=NCCN2)cc1)c1ccc(C(=O)Nc2ccc(C3=NCCN3)cc2)cc1,T/C,"dose: 3.12 mg/kg/injection, schedule: Q01DX Z (ip), vehicle: carboxymethylcellulose (CMC)",107 % of control
same,T/C,"dose: 6.25 mg/kg/injection, schedule: Q01DX Z (ip), vehicle: carboxymethylcellulose (CMC)",94 % of control
same,T/C,"dose: 8.0 mg/kg/injection, schedule: Q01DX010 (ip), vehicle: other",158 % of control and 188 % of control
same,T/C,"dose: 12.5 mg/kg/injection, schedule: Q01DX Z (ip), vehicle: carboxymethylcellulose (CMC)",102 % of control
same,T/C,"dose: 16.0 mg/kg/injection, schedule: Q01DX010 (ip), vehicle: other",195 % of control
same,T/C,"dose: 25.0 mg/kg/injection, schedule: Q01DX Z (ip), vehicle: carboxymethylcellulose (CMC)",102 % of control
same,T/C,"dose: 32.0 mg/kg/injection, schedule: Q01DX010 (ip), vehicle: other",154 % of control
same,T/C,"dose: 50.0 mg/kg/injection, schedule: Q01DX Z (ip), vehicle: carboxymethylcellulose (CMC)",102 % of control
same,T/C,"dose: 100.0 mg/kg/injection, schedule: Q01DX Z (ip), vehicle: carboxymethylcellulose (CMC)",204 % of control
same,T/C,"dose: 200.0 mg/kg/injection, schedule: Q01DX Z (ip), vehicle: carboxymethylcellulose (CMC)",186 % of control
C[C@]12CCC(=O)C[C@H]1CC[C@@H]1[C@@H]2CC[C@@]2(C)[C@H]1CC[C@]2(C)O,T/C,"dose: 62.5 mg/kg/injection, schedule: Q01DX Z (sc), vehicle: steriod suspending solution",97 % of control
same,T/C,"dose: 125.0 mg/kg/injection, schedule: Q01DX Z (sc), vehicle: steriod suspending solution",98 % of control
same,T/C,"dose: 250.0 mg/kg/injection, schedule: Q01DX Z (sc), vehicle: steriod suspending solution",109 % of control and 92 % of control
same,T/C,"dose: 500.0 mg/kg/injection, schedule: Q01DX Z (sc), vehicle: steriod suspending solution",104 % of control and 100 % of control
same,T/C,"dose: 1000.0 mg/kg/injection, schedule: Q01DX Z (sc), vehicle: steriod suspending solution",101 % of control
